Experimental data taken from article PMC12931196, “Vm–MSI: a Vancomycin–Antimicrobial Peptide Conjugate Combating Resistant Bacteria and Broadening the Antimicrobial Spectrum” (Advanced Science, 2025).
“And” between values parts separate entries of the source, which are not always exact repeats. Identical values can stand only once.

What was measured:
[1] = tested on: S. aureus CMCC26003; assay: Antimicrobial resistance development assay; format: cell-based; settings: S. aureus CMCC26003 cultured at sub‐MIC
[2] = tested on: VRSA 52; assay: Mouse skin infection model; format: in vivo, BALB/c mice
[3] = tested on: multidrug‐resistant A. baumannii; assay: Mouse lung infection model; format: in vivo, mice; settings: single i.p. 5 mg kg^−1 at 0.5 h post‐infection; lung CFU after one day
Method: The experimental methods employed in this study were based on previously published literature.^[ [64] ^] 6–8 weeks old female mice weighing 18–20 g were selected for the study, and colonization was performed by administering 50 µL of a multidrug‐resistant A. baumannii strain (at a concentration of 1 × 10^7 CFU/mL) via tracheal intubation into the lungs of the mice for a duration of 0.5 h. After this period, an intraperitoneal injection of the drug at a dosage of 5 mg kg^−1 was administered. PBS served as a negative control, while ciprofloxacin was used as a positive control. After 24 h, the mice were euthanized, and their lung tissues were excised, homogenized, and diluted 10000 fold for colony counting. The lung tissue homogenate was then centrifuged to obtain the supernatant, which was further diluted 5 fold. The expression levels of inflammatory factors IL‐6 and TNF‐α in the supernatant were measured using an ELISA assay (ThermoFisher, US).

[4] = tested on: VRSA 52, E. coli ATCC25922, and MDR P. aeruginosa 5; assay: Crystalline violet biofilm inhibition and eradication assays; format: cell-based; settings: 0.5-8 µM; three strains
Method: The mixture was incubated in a 96‐well plate for 48 h. Subsequent steps, including washing, fixation, staining, and OD measurement, were performed as described in the biofilm eradication assay.

[5] = tested on: E. coli ATCC25922 biofilms; settings: 8 µM, 4 h, SYTO9/PI CLSM
[6] = tested on: biofilm‐resident bacteria, including VRSA, E. coli, and MDR P. aeruginosa; assay: Biofilm resident bacteria assay; settings: 1-8 µM, 24 h
[7] = tested on: S. aureus CMCC26003; assay: microbe, parasite or virus in culture; settings: Staphylococcus aureus, CMCC26003, 18 h
[8] = tested on: S. aureus 15192; assay: microbe, parasite or virus in culture; settings: Staphylococcus aureus, 15192, 18 h
[9] = tested on: VRSA 11; assay: microbe, parasite or virus in culture; settings: Staphylococcus aureus, 18 h
[10] = tested on: E. faecalis ATCC29212; assay: microbe, parasite or virus in culture; settings: Enterococcus faecalis, ATCC29212, 18 h
[11] = tested on: A. baumannii ATCC19606; assay: microbe, parasite or virus in culture; settings: Acinetobacter baumannii, ATCC19606, 18 h
[12] = tested on: K. pneumoniae 9883; assay: microbe, parasite or virus in culture; settings: Klebsiella pneumoniae, 9883, 18 h
[13] = tested on: MDR K. pneumoniae 2; assay: microbe, parasite or virus in culture; settings: Klebsiella pneumoniae, 18 h
[14] = tested on: MDR K. pneumoniae 3; assay: microbe, parasite or virus in culture; settings: Klebsiella pneumoniae, 18 h
[15] = tested on: S. typhimurium ATCC14028; assay: microbe, parasite or virus in culture; settings: Salmonella enterica, 18 h
[16] = tested on: MDR P. aeruginosa 5; assay: microbe, parasite or virus in culture; settings: Pseudomonas aeruginosa, 18 h
[17] = tested on: ompR, csgA, csgD, mlrA, and rcsB expression in E. coli ATCC25922; assay: qPCR analysis of biofilm‐related genes; settings: 8 µM, 48 h static; qPCR ΔΔCt
[18] = tested on: VRSA 52; assay: Live/dead bacteria staining (PI/SYTO9, CLSM); settings: 4 µM, 1 h

CN[C@H](CC(C)C)C(=O)N[C@H]1C(=O)N[C@@H](CC(N)=O)C(=O)N[C@H]2C(=O)N[C@H]3C(=O)N[C@H](C(=O)N[C@H](C(=O)O)c4cc(O)cc(O)c4-c4cc3ccc4O)[C@H](O)c3ccc(c(Cl)c3)Oc3cc2cc(c3O[C@@H]2O[C@H](CO)[C@@H](O)[C@H](O)[C@H]2O[C@H]2C[C@](C)(N)[C@H](O)[C@H](C)O2)Oc2ccc(cc2Cl)[C@H]1O [Vm, vancomycin]
change of MIC over 20 generations [1]: four‐fold increase
reduction in bacterial count within the wound ([2]; topical 2 mg kg^−1 at 6, 24 and 48 h post‐infection, VRSA 52 1 × 10^8 CFU mL^−1, wound CFU after 3 days): ≈ 30%
pro‐inflammatory cytokines TNF‐α and IL‐6 at the infection site ([2]; topical 2 mg kg^−1 ×3, ELISA of wound supernatant): didn't effectively decrease
skin wound healing ([2]; topical 2 mg kg^−1 ×3, observed to day 12): remained unhealed
lung‐colonizing bacteria eliminated [3]: no antibacterial activity
anti‐biofilm activity (inhibition and eradication) [4]: no noticeable anti‐biofilm activity
killing at the bottom of the biofilm [5]: 20%
killing at the surface of the biofilm [5]: 60%
biofilm‐resident bactericidal effect [6]: no significant biofilm‐resident bactericidal effect
MIC [7]: 0.4 µM and 0.59 µg/mL
MIC [8]: 0.4 µM and 0.59 µg/mL
MIC [9]: > 67.3 µM and > 100 µg/mL
MIC [10]: > 67.3 µM and > 100 µg/mL
MIC [11]: > 67.3 µM and > 100 µg/mL
MIC [12]: > 67.3 µM and > 100 µg/mL
MIC [13]: > 67.3 µM
MIC [14]: > 67.3 µM
MIC [15]: > 67.3 µM and > 100 µg/mL
MIC [16]: > 67.3 µM
csgA expression relative to control [17]: 0.8
csgD expression relative to control [17]: 0.6
rcsB up‐regulation relative to control [17]: 1.5 fold
bacterial mortality [18]: 2%
